Measurements as given in the NIST ThermoML archive (doi:10.1021/je700294p).

Experiments:
[1] = xn = mol fraction of the nth substance listed; settings: 101 kPa, Liquid
[2] = excess molar enthalpy (molar enthalpy of mixing); xn = mol fraction of the nth substance listed; settings: 101 kPa, Liquid
[3] = refractive index (Na D-line) (dimensionless); settings: 101.33 kPa, Liquid, Standard Abbe refractometry
[4] = 101.33 kPa, Liquid, Vibrating tube method

CCCC[n+]1cccc(C)c1.F[B-](F)(F)F [1-butyl-3-methylpyridinium tetrafluoroborate] + CO
Settings	excess molar enthalpy [kcal/mol]	mass density [kg/m3]
[1], 298.15 K, x1 = 0.0493	–	873.4
[1], 298.15 K, x1 = 0.0629	–	893.1
[1], 298.15 K, x1 = 0.0986	–	934.4
[1], 298.15 K, x1 = 0.1499	–	979.6
[1], 298.15 K, x1 = 0.2007	–	1014.7
[1], 298.15 K, x1 = 0.2956	–	1061.6
[1], 298.15 K, x1 = 0.4052	–	1098.2
[1], 298.15 K, x1 = 0.5128	–	1122.8
[1], 298.15 K, x1 = 0.6009	–	1138.7
[1], 298.15 K, x1 = 0.6913	–	1151.7
[1], 298.15 K, x1 = 0.7611	–	1159.7
[1], 318.15 K, x1 = 0.0557	–	865.7
[1], 318.15 K, x1 = 0.1052	–	924.3
[1], 318.15 K, x1 = 0.1493	–	964
[1], 318.15 K, x1 = 0.2479	–	1025.1
[1], 318.15 K, x1 = 0.3016	–	1048.4
[1], 318.15 K, x1 = 0.3944	–	1079.5
[1], 318.15 K, x1 = 0.497	–	1104.7
[1], 318.15 K, x1 = 0.5868	–	1121.6
[1], 318.15 K, x1 = 0.7088	–	1139.8
[1], 318.15 K, x1 = 0.855	–	1156.2
[1], 318.15 K, x1 = 0.9465	–	1164.4
[2], 298.15 K, x1 = 0.0057	0.0261	–
[2], 298.15 K, x1 = 0.0149	0.0545	–
[2], 298.15 K, x1 = 0.0279	0.0923	–
[2], 298.15 K, x1 = 0.044	0.13	–
[2], 298.15 K, x1 = 0.0635	0.167	–
[2], 298.15 K, x1 = 0.0842	0.202	–
[2], 298.15 K, x1 = 0.1071	0.237	–
[2], 298.15 K, x1 = 0.1312	0.271	–
[2], 298.15 K, x1 = 0.1585	0.308	–
[2], 298.15 K, x1 = 0.1851	0.332	–
[2], 298.15 K, x1 = 0.2119	0.359	–
[2], 298.15 K, x1 = 0.2357	0.373	–
[2], 298.15 K, x1 = 0.2672	0.382	–
[2], 298.15 K, x1 = 0.3069	0.386	–
[2], 298.15 K, x1 = 0.3541	0.383	–
[2], 298.15 K, x1 = 0.41	0.377	–
[2], 298.15 K, x1 = 0.4816	0.361	–
[2], 298.15 K, x1 = 0.5621	0.33	–
[2], 298.15 K, x1 = 0.7167	0.257	–
[2], 298.15 K, x1 = 0.7441	0.227	–
[2], 298.15 K, x1 = 0.8438	0.158	–
[2], 298.15 K, x1 = 0.9196	0.0942	–
[2], 298.15 K, x1 = 0.9707	0.0416	–
[2], 318.15 K, x1 = 0.0159	0.0588	–
[2], 318.15 K, x1 = 0.0352	0.121	–
[2], 318.15 K, x1 = 0.0581	0.173	–
[2], 318.15 K, x1 = 0.0823	0.224	–
[2], 318.15 K, x1 = 0.1098	0.281	–
[2], 318.15 K, x1 = 0.1382	0.336	–
[2], 318.15 K, x1 = 0.1674	0.39	–
[2], 318.15 K, x1 = 0.197	0.43	–
[2], 318.15 K, x1 = 0.2147	0.462	–
[2], 318.15 K, x1 = 0.2317	0.488	–
[2], 318.15 K, x1 = 0.2641	0.512	–
[2], 318.15 K, x1 = 0.2984	0.533	–
[2], 318.15 K, x1 = 0.3343	0.544	–
[2], 318.15 K, x1 = 0.3787	0.548	–
[2], 318.15 K, x1 = 0.4391	0.538	–
[2], 318.15 K, x1 = 0.5504	0.477	–
[2], 318.15 K, x1 = 0.6911	0.349	–
[2], 318.15 K, x1 = 0.8526	0.191	–

CCCC[n+]1cccc(C)c1.F[B-](F)(F)F [1-butyl-3-methylpyridinium tetrafluoroborate] + O
Settings	excess molar enthalpy [kcal/mol]	mass density [kg/m3]
[1], 298.15 K, x1 = 0.0182	–	1027.1
[1], 298.15 K, x1 = 0.0376	–	1050.3
[1], 298.15 K, x1 = 0.0567	–	1067.1
[1], 298.15 K, x1 = 0.0995	–	1093.7
[1], 298.15 K, x1 = 0.1608	–	1116.8
[1], 298.15 K, x1 = 0.2208	–	1131.4
[1], 298.15 K, x1 = 0.2975	–	1143.6
[1], 298.15 K, x1 = 0.3909	–	1154
[1], 298.15 K, x1 = 0.4861	–	1161.5
[1], 298.15 K, x1 = 0.5827	–	1167.2
[1], 298.15 K, x1 = 0.6761	–	1171.8
[1], 298.15 K, x1 = 0.8091	–	1176.6
[1], 298.15 K, x1 = 0.8376	–	1177.6
[1], 298.15 K, x1 = 0.8942	–	1179.4
[1], 318.15 K, x1 = 0.0466	–	1046.8
[1], 318.15 K, x1 = 0.1004	–	1080.4
[1], 318.15 K, x1 = 0.1523	–	1099.8
[1], 318.15 K, x1 = 0.1991	–	1112.4
[1], 318.15 K, x1 = 0.251	–	1122.2
[1], 318.15 K, x1 = 0.3038	–	1130.2
[1], 318.15 K, x1 = 0.4108	–	1141.5
[1], 318.15 K, x1 = 0.5062	–	1148.8
[1], 318.15 K, x1 = 0.5822	–	1153.3
[1], 318.15 K, x1 = 0.7042	–	1158.9
[1], 318.15 K, x1 = 0.7551	–	1160.9
[1], 318.15 K, x1 = 0.7904	–	1162.3
[1], 318.15 K, x1 = 0.8123	–	1163.2
[1], 318.15 K, x1 = 0.8988	–	1165.7
[1], 318.15 K, x1 = 0.918	–	1166.3
[2], 298.15 K, x1 = 0.006	0.0186	–
[2], 298.15 K, x1 = 0.0137	0.0399	–
[2], 298.15 K, x1 = 0.0226	0.0636	–
[2], 298.15 K, x1 = 0.0328	0.0894	–
[2], 298.15 K, x1 = 0.0448	0.117	–
[2], 298.15 K, x1 = 0.058	0.146	–
[2], 298.15 K, x1 = 0.0724	0.175	–
[2], 298.15 K, x1 = 0.0876	0.205	–
[2], 298.15 K, x1 = 0.1038	0.235	–
[2], 298.15 K, x1 = 0.1204	0.264	–
[2], 298.15 K, x1 = 0.1234	0.268	–
[2], 298.15 K, x1 = 0.1415	0.298	–
[2], 298.15 K, x1 = 0.1713	0.326	–
[2], 298.15 K, x1 = 0.1993	0.35	–
[2], 298.15 K, x1 = 0.2307	0.372	–
[2], 298.15 K, x1 = 0.2676	0.387	–
[2], 298.15 K, x1 = 0.3091	0.391	–
[2], 298.15 K, x1 = 0.3573	0.383	–
[2], 298.15 K, x1 = 0.4051	0.366	–
[2], 298.15 K, x1 = 0.4511	0.349	–
[2], 298.15 K, x1 = 0.5139	0.318	–
[2], 298.15 K, x1 = 0.6139	0.261	–
[2], 298.15 K, x1 = 0.7899	0.151	–
[2], 318.15 K, x1 = 0.0058	0.0227	–
[2], 318.15 K, x1 = 0.0136	0.0519	–
[2], 318.15 K, x1 = 0.0231	0.0841	–
[2], 318.15 K, x1 = 0.0339	0.116	–
[2], 318.15 K, x1 = 0.0459	0.149	–
[2], 318.15 K, x1 = 0.0605	0.184	–
[2], 318.15 K, x1 = 0.0774	0.222	–
[2], 318.15 K, x1 = 0.0961	0.26	–
[2], 318.15 K, x1 = 0.1167	0.299	–
[2], 318.15 K, x1 = 0.1225	0.306	–
[2], 318.15 K, x1 = 0.1348	0.329	–
[2], 318.15 K, x1 = 0.1378	0.334	–
[2], 318.15 K, x1 = 0.1574	0.369	–
[2], 318.15 K, x1 = 0.1845	0.402	–
[2], 318.15 K, x1 = 0.2023	0.435	–
[2], 318.15 K, x1 = 0.2358	0.464	–
[2], 318.15 K, x1 = 0.2685	0.488	–
[2], 318.15 K, x1 = 0.3026	0.502	–
[2], 318.15 K, x1 = 0.3403	0.513	–
[2], 318.15 K, x1 = 0.3889	0.512	–
[2], 318.15 K, x1 = 0.4492	0.493	–
[2], 318.15 K, x1 = 0.5301	0.453	–
[2], 318.15 K, x1 = 0.6433	0.366	–
[2], 318.15 K, x1 = 0.8206	0.201	–

CCCCO [butan-1-ol]
Settings	mass density, [4] [kg/m3]	refractive index, [3]
298.15 K	805.95	1.3968
318.15 K	790.27	1.39

CCO [ethanol]
Settings	mass density, [4] [kg/m3]	refractive index, [3]
298.15 K	785.15	1.36
318.15 K	767.57	1.3548

CO [methanol]
Settings	mass density, [4] [kg/m3]	refractive index, [3]
298.15 K	786.44	1.3268
318.15 K	768.04	1.319

CCCO [propan-1-ol]
Settings	mass density, [4] [kg/m3]	refractive index, [3]
298.15 K	799.7	1.3831
318.15 K	783.16	1.3757
